Measured values taken from ChEMBL document CHEMBL4118132, “Novel 5-methyl-2-phenylphenanthridium derivatives as FtsZ-targeting antibacterial agents from structural simplification of natural product sanguinarine” (2018).
Values after ≈ are worked out from the molar mass of the structure shown.

What was measured:
Type in all cases: functional
[1] = system: Staphylococcus aureus; test: Antibacterial activity against penicillin-susceptible Staphylococcus aureus ATCC 25923 after 24 hrs by broth microdilution method; conditions: ATCC 25923, 24 h
[2] = system: Staphylococcus aureus; test: Antibacterial activity against methicillin-resistant Staphylococcus aureus ATCC 43300 after 24 hrs by broth microdilution method; conditions: ATCC 43300, 24 h
[3] = system: Staphylococcus aureus; test: Antibacterial activity against penicillin-resistant Staphylococcus aureus clinical isolate after 24 hrs by broth microdilution method
[4] = system: Staphylococcus epidermidis; test: Antibacterial activity against penicillin-resistant Staphylococcus epidermidis clinical isolate after 24 hrs by broth microdilution method
[5] = system: Streptococcus pyogenes; test: Antibacterial activity against penicillin-susceptible Streptococcus pyogenes after 24 hrs by broth microdilution method
[6] = system: Streptococcus pyogenes; test: Antibacterial activity against penicillin-resistant Streptococcus pyogenes after 24 hrs by broth microdilution method
[7] = system: Bacillus subtilis; test: Antibacterial activity against penicillin-susceptible Bacillus subtilis ATCC 9372 after 24 hrs by broth microdilution method; conditions: ATCC 9372, 24 h
[8] = system: Bacillus pumilus; test: Antibacterial activity against penicillin-susceptible Bacillus pumilus ATCC 63202 after 24 hrs by broth microdilution method; conditions: ATCC 63202, 24 h
[9] = system: Escherichia coli; test: Antibacterial activity against penicillin-susceptible Escherichia coli ATCC 25922 after 24 hrs by broth microdilution method; conditions: ATCC 25922, 24 h
[10] = system: Pseudomonas aeruginosa; test: Antibacterial activity against penicillin-susceptible Pseudomonas aeruginosa ATCC 27853 after 24 hrs by broth microdilution method; conditions: ATCC 27853, 24 h
[11] = system: Staphylococcus aureus; test: Bactericidal activity against penicillin-susceptible Staphylococcus aureus ATCC 25923 after 24 hrs by flat colony counting method; conditions: ATCC 25923, 24 h
[12] = system: Staphylococcus aureus; test: Potency index, ratio of ciprofloxacin MIC to test compound MIC for penicillin-resistant Staphylococcus aureus clinical isolate
[13] = system: Staphylococcus aureus; test: Potency index, ratio of ciprofloxacin MIC to test compound MIC for penicillin-susceptible Staphylococcus aureus ATCC 25923
[14] = system: Staphylococcus aureus; test: Potency index, ratio of oxacillin sodium MIC to test compound MIC for penicillin-susceptible Staphylococcus aureus ATCC 25923
[15] = system: Staphylococcus aureus; test: Potency index, ratio of ciprofloxacin MIC to test compound MIC for methicillin-resistant Staphylococcus aureus ATCC 43300
[16] = system: Staphylococcus aureus; test: Potency index, ratio of oxacillin sodium MIC to test compound MIC for methicillin-resistant Staphylococcus aureus ATCC 43300
[17] = system: Staphylococcus aureus; test: Potency index, ratio of oxacillin sodium MIC to test compound MIC for penicillin-resistant Staphylococcus aureus clinical isolate

Row | Compound | MIC [1] [µg/mL] | MIC [2] [µg/mL] | MIC [3] [µg/mL] | MIC [4] [µg/mL] | MIC [5] [µg/mL] | MIC [6] [µg/mL] | MIC [7] [µg/mL] | MIC [8] [µg/mL] | MIC [9] [µg/mL] | MIC [10] [µg/mL] | MBC [11] [µg/mL] | Ratio [12] | Ratio [13] | Ratio [14] | Ratio [15] | Ratio [16] | Ratio [17]
1 | C[n+]1cc2ccccc2c2cc(-c3ccc(OC(F)(F)F)cc3)ccc21.[Cl-] | 4 | 64 | 64 | 16 | 4 | 32 | 2 | 8 | > 64 | > 64 | 64 | – | – | – | – | – | –
2 | COc1ccc(-c2cc(C)c3c(c2)c2ccccc2c[n+]3C)cc1.[Cl-] | 0.5 | 4 | 4 | 2 | 8 | 8 | 2 | 4 | > 64 | > 64 | > 64 | 4 - 64 | 8 - 133 | 4 - 67 | 4 - 164 | 16 - 256 | 16 - 256
3 | C[n+]1cc2ccccc2c2cc(-c3ccccc3C(F)(F)F)ccc21.[Cl-] | 16 | 32 | 32 | 32 | 64 | 32 | 32 | 32 | > 64 | > 64 | > 64 | – | – | – | – | – | –
4 | COc1ccc(-c2ccc3c(c2)c2ccccc2c[n+]3C)cc1.[Cl-] | 4 | 64 | 64 | 64 | 4 | 16 | 4 | 16 | > 64 | > 64 | > 64 | – | – | – | – | – | –
5 | Cc1cc(-c2cccc(C(F)(F)F)c2)cc2c3ccccc3c[n+](C)c12.[Cl-] | 0.25 | 1 | 0.5 | 0.25 | 1 | 2 | 0.25 | 0.5 | > 64 | > 64 | 16 | 4 - 64 | 8 - 133 | 4 - 67 | 4 - 164 | 16 - 256 | 16 - 256
6 | COc1cc(-c2ccc(OC(F)(F)F)cc2)cc2c3ccccc3c[n+](C)c12.[Cl-] | 1 | 4 | 8 | 16 | 2 | 16 | 4 | 2 | > 64 | > 64 | 32 | – | – | – | – | – | –
7 | C[n+]1cc2ccccc2c2cc(-c3ccc(-c4ccccc4)cc3)ccc21.[Cl-] | 8 | 64 | 8 | > 64 | 2 | 64 | 8 | 16 | > 64 | > 64 | > 64 | – | – | – | – | – | –
8 | Cc1ccc(-c2cc(C)c3c(c2)c2ccccc2c[n+]3C)cc1.[Cl-] | 0.5 | 2 | 1 | 2 | 4 | 4 | 0.5 | 2 | > 64 | > 64 | 32 | 4 - 64 | 8 - 133 | 4 - 67 | 4 - 164 | 16 - 256 | 16 - 256
9 | C[n+]1cc2ccccc2c2cc(-c3ccccc3)ccc21.[Cl-] | 32 | 16 | 64 | 16 | 4 | 16 | 4 | 16 | > 64 | > 64 | > 64 | – | – | – | – | – | –
10 | Cc1onc(-c2ccccc2)c1C(=O)N[C@@H]1C(=O)N2[C@@H]1SC(C)(C)[C@@H]2C(=O)[O-].[Na+] | 4 | > 64 | > 64 | > 64 | 1 | > 64 | 4 | 32 | > 64 | > 64 | – | – | – | – | – | – | –
11 | Cc1cc(-c2ccccc2)cc2c3ccccc3c[n+](C)c12.[Cl-] | 1 | 2 | 2 | 4 | 2 | 2 | 1 | 4 | > 64 | > 64 | 32 | 4 - 64 | 8 - 133 | 4 - 67 | 4 - 164 | 16 - 256 | 16 - 256
12 | C[n+]1cc2ccccc2c2cc(-c3ccc(C(F)(F)F)cc3)ccc21.[Cl-] | 8 | 16 | 16 | > 64 | 2 | 16 | 4 | 8 | > 64 | > 64 | > 64 | – | – | – | – | – | –
13 | COc1cc(-c2ccc(-c3ccccc3)cc2)cc2c3ccccc3c[n+](C)c12.[Cl-] | 1 | 4 | 4 | 8 | 1 | 16 | 2 | 2 | > 64 | > 64 | 16 | – | – | – | – | – | –
14 | COc1cc(-c2ccc(C)cc2)cc2c3ccccc3c[n+](C)c12.[Cl-] | 4 | 4 | 16 | 16 | 2 | 8 | 0.5 | 2 | > 64 | > 64 | 64 | – | – | – | – | – | –
15 | C[n+]1cc2ccccc2c2cc(-c3cccc(C(F)(F)F)c3)ccc21.[Cl-] | 8 | 16 | 16 | 8 | 16 | 8 | 16 | 16 | > 64 | > 64 | > 64 | – | – | – | – | – | –
16 | COc1cc(-c2ccccc2)cc2c3ccccc3c[n+](C)c12.[Cl-] | 16 | 8 | 64 | 4 | 2 | 8 | 1 | 4 | > 64 | > 64 | > 64 | – | – | – | – | – | –
17 | COc1cc(-c2ccccc2C(F)(F)F)cc2c3ccccc3c[n+](C)c12.[Cl-] | 8 | 16 | 16 | 16 | 16 | 16 | 16 | 16 | > 64 | > 64 | > 64 | – | – | – | – | – | –
18 | Cc1cc(-c2ccccc2C(F)(F)F)cc2c3ccccc3c[n+](C)c12.[Cl-] | 0.5 | 1 | 1 | 0.5 | 2 | 2 | 0.5 | 2 | > 64 | > 64 | 32 | 4 - 64 | 8 - 133 | 4 - 67 | 4 - 164 | 16 - 256 | 16 - 256
19 | COc1ccc(-c2cc(OC)c3c(c2)c2ccccc2c[n+]3C)cc1.[Cl-] | 16 | 32 | 64 | 16 | 4 | 8 | 2 | 8 | > 64 | > 64 | > 64 | – | – | – | – | – | –
20 | COc1cc(-c2cccc(C(F)(F)F)c2)cc2c3ccccc3c[n+](C)c12.[Cl-] | 2 | 8 | 8 | 4 | 4 | 8 | 4 | 4 | > 64 | > 64 | 32 | – | – | – | – | – | –
21 | COc1cc(-c2ccc(C(F)(F)F)cc2)cc2c3ccccc3c[n+](C)c12.[Cl-] | 2 | 4 | 8 | 8 | 0.5 | 8 | 1 | 2 | > 64 | > 64 | 32 | – | – | – | – | – | –
22 | Cc1ccc(-c2ccc3c(c2)c2ccccc2c[n+]3C)cc1.[Cl-] | 8 | 16 | 16 | 32 | 4 | 16 | 2 | 8 | > 64 | > 64 | > 64 | – | – | – | – | – | –
23 | COc1cc(/C=C/C(=O)CC(=O)/C=C/c2ccc(O)c(OC)c2)ccc1O [CURCUMIN] | 32 (≈ 86.9 µM) | 64 (≈ 174 µM) | > 64 | > 64 | > 64 | – | 32 (≈ 86.9 µM) | 32 (≈ 86.9 µM) | > 64 | > 64 | – | – | – | – | – | – | –
